Data: US8175815B2, “Method for assessing absorption properties of low solubility compounds” (F. Hoffmann-La Roche AG, priority 2006, dated 2012)
Values after ≈ are worked out from the molar mass of the structure shown. Values joined by “and” are separate entries in the source; they are usually repeats but may differ in a detail not shown here. Equal values may be shown once. Read-outs that look alike come from different tables or passages of the source. One block for each molecule: values may come before it.

Tests used:
[1] = flux function combining permeability and solubility measurement results; settings: pH 5.0, 6.2, 7.4; FIG. 13
[2] = PAMPA, pH 5
[3] = Double-Sink PAMPA permeability with and without excipients
[4] = equilibrium solubility-pH, direct-UV microtitre plate (μSOL Evolution) with and without excipients; settings: for pKa at 18 h / solubility at 18 h: aqueous universal buffer (pION); for pKa at 18 h: saturated drug suspension, pKa^APP ± SD; for solubility at 18 h: 25 °C, kinetic from dmso stock
[5] = PAMPA, 30 min, 50 μM
[6] = apparent/true molecular weight, 40 μm ABL assumed, 0 mM NaTC (first value)
[7] = apparent ionization constant in saturated solution, excipient none
[8] = apparent ionization constant, excipient 3 mM NaTC
[9] = apparent ionization constant, excipient 15 mM NaTC
[10] = apparent ionization constant, excipient 0.1M KCl
[11] = apparent ionization constant, excipient 0.2M KCl
[12] = apparent ionization constant, excipient 1% HP-b-CD
[13] = apparent ionization constant, excipient 1% NMP
[14] = apparent ionization constant, excipient 1% PEG400
[15] = apparent ionization constant, excipient 1% PG
[16] = apparent ionization constant, excipient 5% PEG400
[17] = apparent ionization constant, excipient 5% PG
[18] = apparent ionization constant, excipient […] HP-b-CD
[19] = apparent ionization constant, excipient […] NMP
[20] = apparent ionization constant, excipient […] PEG400
[21] = apparent ionization constant, excipient […] PG

- net flux effect due to 1% HP-β-CD [1]: cross-over pattern as a function of pH
SMILES: CCCCc1oc2ccccc2c1C(=O)c1cc(I)c(OCCN(CC)CC)c(I)c1 [amiodarone]

- MW*/MW ([3]; 3 mM NaTC (second value)): 1
- MW*/MW ([3]; 15 mM NaTC (third value)): 1100
- MW*/MW [3, 6]: ~1
- pKa at 18 h [4, 7]: 5.8 ± 0.1
- pKa at 18 h [4, 8]: 5.6 ± 0.1
- pKa at 18 h [4, 9]: 5.2 ± 0.1
- pKa at 18 h [4, 10]: 6 ± 0.1
- pKa at 18 h [4, 11]: 5.9 ± 0.1
- pKa at 18 h [4, 12]: 5.6 ± 0.1
- pKa at 18 h [4, 13]: 5.7 ± 0.1
- pKa at 18 h [4, 14]: 5.9 ± 0.2
- pKa at 18 h [4, 15]: 5.8 ± 0.1
- pKa at 18 h [4, 16]: 6.2 ± 0.1
- pKa at 18 h [4, 17]: 5.8 ± 0.1
- pKa at 18 h [4, 18]: 5.8 ± 0.1
- pKa at 18 h [4, 19]: 5.8 ± 0.1
- pKa at 18 h [4, 20]: 6.8 ± 0.1
- pKa at 18 h [4, 21]: 5.8 ± 0.1
- So ± SD ([4]; excipient 3 mM NaTC): 5.3 ± 0.9 µg/mL
- So^APP ± SD ([4]; excipient 3 mM NaTC): 24 ± 2 µg/mL
- So ± SD ([4]; excipient 15 mM NaTC): 9.9 ± 1.7 µg/mL
- So^APP ± SD ([4]; excipient 15 mM NaTC): 110 µg/mL and 110 ± 5 µg/mL
- So ± SD ([4]; excipient 0.1M KCl): 3.3 ± 0.8 µg/mL
- So^APP ± SD ([4]; excipient 0.1M KCl): 5.2 ± 0.8 µg/mL
- So ± SD ([4]; excipient 0.2M KCl): 3.1 ± 0.7 µg/mL
- So^APP ± SD ([4]; excipient 0.2M KCl): 5.8 ± 0.9 µg/mL
- So ± SD ([4]; excipient 1% HP-b-CD): 3.2 ± 0.7 µg/mL
- So^APP ± SD ([4]; excipient 1% HP-b-CD): 15 ± 1 µg/mL
- So ± SD ([4]; excipient 1% NMP): 2.4 ± 0.7 µg/mL
- So^APP ± SD ([4]; excipient 1% NMP): 8.1 ± 1.5 µg/mL
- So ± SD ([4]; excipient 1% PEG400): 5.0 ± 1.9 µg/mL
- So^APP ± SD ([4]; excipient 1% PEG400): 11 ± 3 µg/mL
- So ± SD ([4]; excipient 1% PG): 2.7 ± 0.2 µg/mL
- So^APP ± SD ([4]; excipient 1% PG): 6.5 ± 0.3 µg/mL
- So ± SD ([4]; excipient 5% PEG400): 13.7 ± 2.4 µg/mL
- So^APP ± SD ([4]; excipient 5% PEG400): 14 ± 1 µg/mL
- So ± SD ([4]; excipient 5% PG): 3.9 ± 0.8 µg/mL
- So^APP ± SD ([4]; excipient 5% PG): 9.8 ± 1.3 µg/mL
- So ± SD ([4]; excipient […] HP-b-CD): 2.8 ± 0.7 µg/mL
- So^APP ± SD ([4]; excipient […] HP-b-CD): 7.1 ± 0.8 µg/mL
- So ± SD ([4]; excipient […] NMP): 2.2 ± 0.6 µg/mL
- So^APP ± SD ([4]; excipient […] NMP): 5.9 ± 1.1 µg/mL
- So^APP ± SD ([4]; excipient […] PEG400): 4.6 ± 1.2 µg/mL
- So ± SD ([4]; excipient […] PG): 2.1 ± 0.3 µg/mL
- So^APP ± SD ([4]; excipient […] PG): 5.8 ± 0.5 µg/mL
- So ± SD ([4]; excipient none): 2.3 ± 0.7 µg/mL
- So^APP ± SD ([4]; excipient none): 6.2 ± 1.1 µg/mL and 6.2 µg/mL
- PABL 0 mM NaTC [5]: 941
- PABL 3 mM NaTC [5]: 922
- PABL 15 mM NaTC [5]: 47
- pKa (physchem): 6.22 ± 0.15
SMILES: OCCN(CCO)c1nc(N2CCCCC2)c2nc(N(CCO)CCO)nc(N3CCCCC3)c2n1 [dipyridamole]
- net flux effect due to 1% HP-β-CD [2]: the flux remains unaffected by the excipient

- MW*/MW ([3]; 3 mM NaTC (second value)): 3
- MW*/MW ([3]; 15 mM NaTC (third value)): 4
- MW*/MW [3, 6]: 4
- solubility at 18 h ([4]; aqueous buffer): 0.021 ± 0.005 µg/mL (≈ 0.087 µM)
- solubility at 18 h ([4]; aqueous with cosolvent or surfactant or cyclodextrin): < 3 µg/mL
- pKa at 18 h [4, 7]: 4.3 ± 0.3
- pKa at 18 h [4, 8]: 5.8 ± 0.1
- pKa at 18 h [4, 9]: 5.7 ± 0.1
- pKa at 18 h [4, 10]: 4.4 ± 0.4
- pKa at 18 h [4, 11]: 4.3
- pKa at 18 h [4, 12]: 5.2 ± 0.1
- pKa at 18 h [4, 13]: 4.4 ± 0.2
- pKa at 18 h [4, 14]: 4.5
- pKa at 18 h [4, 15]: 4 ± 0.3
- pKa at 18 h [4, 16]: 4.5 ± 1.1
- pKa at 18 h [4, 17]: 4
- pKa at 18 h [4, 18]: 4.6 ± 0.1
- pKa at 18 h [4, 19]: 4.1 ± 0.6
- pKa at 18 h [4, 20]: 4.5 ± 0.2
- pKa at 18 h [4, 21]: 4.1 ± 0.3
- So ± SD ([4]; excipient 3 mM NaTC): 0.11 ± 0.03 µg/mL
- So^APP ± SD ([4]; excipient 3 mM NaTC): 1.9 ± 0.4 µg/mL
- So ± SD ([4]; excipient 15 mM NaTC): 0.10 ± 0.03 µg/mL
- So^APP ± SD ([4]; excipient 15 mM NaTC): 1.4 ± 0.3 µg/mL
- So^APP ± SD ([4]; excipient 0.1M KCl): 0.023 ± 0.005 µg/mL
- So^APP ± SD ([4]; excipient 0.2M KCl): 0.021 µg/mL
- So ± SD ([4]; excipient 1% HP-b-CD): 0.61 µg/mL
- So^APP ± SD ([4]; excipient 1% HP-b-CD): 2.9 ± 0.5 µg/mL
- So^APP ± SD ([4]; excipient 1% NMP): 0.062 ± 0.010 µg/mL
- So^APP ± SD ([4]; excipient 1% PEG400): 0.021 µg/mL
- So^APP ± SD ([4]; excipient 1% PG): 0.021 µg/mL
- So^APP ± SD ([4]; excipient 5% PEG400): 0.028 µg/mL
- So^APP ± SD ([4]; excipient 5% PG): 0.056 µg/mL
- So ± SD ([4]; excipient […] HP-b-CD): 0.28 ± 0.02 µg/mL
- So^APP ± SD ([4]; excipient […] HP-b-CD): 0.34 ± 0.02 µg/mL
- So^APP ± SD ([4]; excipient […] NMP): 0.019 ± 0.009 µg/mL
- So^APP ± SD ([4]; excipient […] PEG400): 0.004 ± 0.002 µg/mL
- So^APP ± SD ([4]; excipient […] PG): 0.021 µg/mL
- intrinsic solubility in excipient free buffer ([4]; excipient free): 0.021 µg/mL
- So^APP ± SD ([4]; excipient none): 0.021 ± 0.005 µg/mL
- salt limit (sdiff 3-4 approximation) ([4]; three orders of magnitude above excipient-free intrinsic solubility): 21 µg/mL
- PABL 0 mM NaTC [5]: 782
- PABL 3 mM NaTC [5]: 909
- PABL 15 mM NaTC [5]: 795
- refined ABL thickness [5]: exceeding 75 μm
- pKa (physchem): 4.39 ± 0.09
SMILES: Cc1cccc(Nc2ccccc2C(=O)O)c1C [mefenamic acid]
- net flux effect due to 1% HP-β-CD [2]: In acid solutions, flux is helped by 1% HP-β-CD, but in neutral solutions, there is a net loss
